Measured values: PubChem BioAssay (NCI)
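1) Cells in 96-well plates. 2) Compound, 48 h, 5 concentrations. 3) Linear interpolation between surrounding doses. 4) Unreached endpoint = highest concentration. TGI marks complete inhibition of growth.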

Columns and labels:
Assay in all cases: NCI tumour cell line growth inhibition, 48 h
HL-60(TB) leukemia = system: HL-60(TB) leukemia
MCF7 breast = system: MCF7 breast
MDA-MB-435 = system: MDA-MB-435
MOLT-4 leukemia = system: MOLT-4 leukemia
NCI-H460 lung = system: NCI-H460 lung
SW-620 colon = system: SW-620 colon
T-47D breast = system: T-47D breast
TK-10 renal = system: TK-10 renal
HOP-92 NSCLC = system: HOP-92 NSCLC
M14 melanoma = system: M14 melanoma

Row | SMILES | TGI (HL-60(TB) leukemia) | TGI (MCF7 breast) | TGI (MDA-MB-435) | TGI (MOLT-4 leukemia) | TGI (NCI-H460 lung) | TGI (SW-620 colon) | TGI (T-47D breast) | TGI (TK-10 renal) | TGI (HOP-92 NSCLC) | TGI (M14 melanoma)
1 | COC1C(O)CC(OC2C(C)OC(Oc3cc(O)c4c(O)c5c(cc4c3)C[C@@H]([C@H](OC)C(=O)[C@@H](O)[C@@H](C)O)[C@H](OC3CC(OC4CC(OC6CC(C)(O)C(O)C(C)O6)C(O)C(C)O4)C(O)C(C)O3)C5=O)CC2OC(C)=O)OC1C (some centres not stated) | > 100 µM | > 100 µM | > 100 µM | > 100 µM | > 100 µM | > 100 µM | > 100 µM | > 100 µM |  | 
2 | COC(=O)CCCc1ccc2c(c1)CC1(C2)Cc2cc3c(cc2C1)CCCC3 | 29.2 µM | > 100 µM | 40.3 µM | 38.9 µM |  |  | > 100 µM | > 100 µM | 85.1 µM | 68.2 µM
3 | CCN(CC)Cc1nc2sc3c(c2c(=O)n1-c1ccccc1)CCCC3 | > 100 µM | 36 µM |  | 56.7 µM | 40.8 µM | 37.3 µM | 44.7 µM | 30.9 µM | 51.4 µM | 30.2 µM
4 | COc1ccc2c(c1)O[C@@H]1C(O)Oc3cc(OC)c(OC)cc3[C@]1(O)C2=O (some centres not stated) | > 100 µM | > 100 µM | > 100 µM | > 100 µM | > 100 µM | > 100 µM | > 100 µM | > 100 µM |  | > 100 µM
5 | COc1cc(OC)c2c(O)cc(CC(C)O)cc2c1 (configuration not stated) | > 100 µM |  |  | > 100 µM | > 100 µM | > 100 µM |  | > 100 µM | > 100 µM | > 100 µM
6 | COc1ccc2[nH]c3c(c2c1)CCN(C)CC3 | > 100 µM |  |  | > 100 µM | > 100 µM | > 100 µM |  | > 100 µM | > 100 µM | > 100 µM
7 | CCC(C)[C@H](NC(=O)N[C@H](C)c1ccccc1)C(=O)OC (some centres not stated) | > 100 µM | > 100 µM | > 100 µM | > 100 µM | > 100 µM | > 100 µM |  | > 100 µM | > 100 µM | > 100 µM
8 | CC1OC(OCC2OC(Oc3c(-c4ccc(O)cc4)oc4cc(O)cc(O)c4c3=O)C(OC3OCC(O)(CO)C3O)C(O)C2O)C(O)C(O)C1O (configuration not stated) | 38.7 µM |  |  | > 100 µM | > 100 µM | > 100 µM |  | > 100 µM | > 100 µM | > 100 µM
9 | CCC(CCCN)Nc1cc(OC)cc2cccnc12 (configuration not stated) | 51.1 µM | > 100 µM | > 100 µM |  | > 100 µM | > 100 µM |  | > 100 µM | > 100 µM | > 100 µM
10 | S=C1c2ccccc2NC(=NC2CCCC2)C2CSCN12 (configuration not stated) |  | > 100 µM | > 100 µM | > 100 µM | > 100 µM | > 100 µM | > 100 µM | > 100 µM |  | > 100 µM
11 | C=CCC(C)C12CCNC(Cc3ccc(O)cc31)C2C (configuration not stated) |  | > 100 µM | > 100 µM | > 100 µM | > 100 µM | > 100 µM | > 100 µM | > 100 µM | > 100 µM | > 100 µM
12 | Cc1ccc([N+](=O)[O-])cc1S(=O)(=O)Nc1ccc(C2=NN(c3ccc([N+](=O)[O-])cc3[N+](=O)[O-])C(c3ccccc3)C2)cc1 (configuration not stated) | 57.5 µM | 26.3 µM | 47.4 µM | 70.8 µM |  | > 100 µM | > 100 µM | 61.8 µM | 35.9 µM | 51.1 µM
13 | COC(=O)C12Oc3ccc(-c4ccc5c(c4O)C(=O)C4=CCC(C)C(O)C4(C(=O)OC)O5)c(O)c3C(=O)C1=CCC(C)C2O (configuration not stated) | 5.1 µM |  |  | > 23 µM | 6.33 µM | 2.65 µM |  | 5.24 µM | 3.21 µM | 3.46 µM
14 | c1ccc2c(-c3cnc(-c4c[nH]c5ccccc45)cn3)c[nH]c2c1 |  | > 100 µM | 78.5 µM |  | > 100 µM | 47.9 µM | > 100 µM | > 100 µM | > 100 µM | > 100 µM
15 | Brc1ccc(N=NN2CCCCC2)cc1 |  | > 100 µM | > 100 µM | 46.2 µM | > 100 µM | > 100 µM | > 100 µM | > 100 µM | > 100 µM | > 100 µM
16 | COc1ccc(N[C@H](CS(=O)c2ccc(C)cc2)c2ccc(F)cc2)cc1 (some centres not stated) |  | > 100 µM | > 100 µM | > 100 µM | > 100 µM | > 100 µM | > 100 µM | > 100 µM |  | > 100 µM
17 | CC(=O)C1CC(C)=CCC12C(=O)Nc1ccccc12 (configuration not stated) | > 100 µM |  |  | > 100 µM | > 100 µM | > 100 µM |  | > 100 µM | > 100 µM | > 100 µM
18 | CC(=O)C(C(C)=O)=C1CCCC(O)O1 (configuration not stated) | > 100 µM | > 100 µM | > 100 µM | > 100 µM | > 100 µM | > 100 µM | > 100 µM | > 100 µM |  | > 100 µM
19 | O=c1c2ccccc2[nH]c(=S)n1-c1ccc(Br)cc1 | > 100 µM |  |  | > 100 µM | > 100 µM | > 100 µM |  | > 100 µM | 70 µM | 
20 | C=CC(=O)N1C/C(=C\c2ccc(N(C)C)cc2)C(=O)/C(=C/c2ccc(N(C)C)cc2)C1 |  | > 100 µM | > 100 µM | > 100 µM | > 100 µM | > 100 µM | > 100 µM | > 100 µM | > 100 µM | > 100 µM
21 | CCc1cccc(C(C)C)c1NC(=O)C(=O)C(Cc1nc2ccccc2[nH]c1=O)C(=O)OC (configuration not stated) | > 100 µM |  |  | > 100 µM | > 100 µM |  |  | > 100 µM | > 100 µM | > 100 µM
22 | Cc1cn(C2CC(n3cc(Cn4cc(F)c(=O)[nH]c4=O)nn3)C(CO)O2)c(=O)[nH]c1=O (configuration not stated) | > 100 µM | > 100 µM | > 100 µM | > 100 µM |  | > 100 µM | > 100 µM | > 100 µM | > 100 µM | > 100 µM
23 | CCOC/N=C(/N)NC#N | > 100 µM |  |  | > 100 µM | > 100 µM | 35.3 µM |  | > 100 µM | > 100 µM | > 100 µM
24 | O=C(NCCN(CCNC(=O)c1cccc(=O)n1O)CCN(CCNC(=O)c1cccc(=O)n1O)CCNC(=O)c1cccc(=O)n1O)c1cccc(=O)n1O | > 100 µM | > 100 µM | > 100 µM |  | > 100 µM | > 100 µM | > 100 µM | > 100 µM | > 100 µM | > 100 µM
